Measurements as given in patent US20200264182A1, “METHOD FOR DETECTING PROSTATE CANCER” (J-OIL MILLS, INC., priority 2017, published 2020).
Where no end group is shown, it is not given here.

Test: FAC binding constant
Details: at 25° C.
Summary of the method: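 Temperature 25° C; method FAC; lectins PhoSL/SRL/NSL/LSL, fucose α1→6 specific; panel of sugar chains as analytes.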

[1] = sugar chain having fucose other than α1→6 fucose

PhoSL: fucose α1→6 specific lectin that can be extracted from Pholiota squarrosa, SEQ ID No. 1 (APVPVTKLVCDGDTYKCTAYLDFGDGRWVAQWDTNVFHTG; not fully specified; ends and bridges not checked)
Binding constant for sugar chain No. 728 (Table 3: sugar chain having fucose other than α1→6 fucose): <1000 M⁻¹
Binding constant for sugar chain No. 419 [1]: <1000 M⁻¹
Binding constant for sugar chain No. 420 [1]: <1000 M⁻¹
Binding constant for sugar chain No. 718 [1]: <1000 M⁻¹
Binding constant for sugar chain No. 719 [1]: <1000 M⁻¹
Binding constant for sugar chain No. 720 [1]: <1000 M⁻¹
Binding constant for sugar chain No. 721 [1]: <1000 M⁻¹
Binding constant for sugar chain No. 722 [1]: <1000 M⁻¹
Binding constant for sugar chain No. 723 [1]: <1000 M⁻¹
Binding constant for sugar chain No. 726 [1]: <1000 M⁻¹
Binding constant for sugar chain No. 727 [1]: <1000 M⁻¹
Binding constant for sugar chain No. 729 [1]: <1000 M⁻¹
Binding constant for sugar chain No. 730 [1]: <1000 M⁻¹
Binding constant for sugar chain No. 731 [1]: <1000 M⁻¹
Binding constant for sugar chain No. 739 [1]: <1000 M⁻¹
Binding constant for sugar chain No. 909 [1]: <1000 M⁻¹
Binding constant for sugar chain No. 910 [1]: <1000 M⁻¹
Binding constant for sugar chain No. 931 [1]: <1000 M⁻¹
Binding constant for sugar chain No. 932 [1]: <1000 M⁻¹
Binding constant for sugar chain No. 933 [1]: <1000 M⁻¹
Binding constant for sugar chain No. 001 (sugar chain having no fucose): <1000 M⁻¹
Binding constant for sugar chain No. 002 (sugar chain having no fucose): <1000 M⁻¹
Binding constant for sugar chain No. 003 (sugar chain having no fucose): <1000 M⁻¹
Binding constant for sugar chain No. 004 (sugar chain having no fucose): <1000 M⁻¹
Binding constant for sugar chain No. 005 (sugar chain having no fucose): <1000 M⁻¹
Binding constant for sugar chain No. 006 (sugar chain having no fucose): <1000 M⁻¹
Binding constant for sugar chain No. 007 (sugar chain having no fucose): <1000 M⁻¹
Binding constant for sugar chain No. 008 (sugar chain having no fucose): <1000 M⁻¹
Binding constant for sugar chain No. 009 (sugar chain having no fucose): <1000 M⁻¹
Binding constant for sugar chain No. 010 (sugar chain having no fucose): <1000 M⁻¹
Binding constant for sugar chain No. 011 (sugar chain having no fucose): <1000 M⁻¹
Binding constant for sugar chain No. 012 (sugar chain having no fucose): <1000 M⁻¹
Binding constant for sugar chain No. 013 (sugar chain having no fucose): <1000 M⁻¹
Binding constant for sugar chain No. 014 (sugar chain having no fucose): <1000 M⁻¹
Binding constant for sugar chain No. 101 (sugar chain having no fucose): <1000 M⁻¹
Binding constant for sugar chain No. 103 (sugar chain having no fucose): <1000 M⁻¹
Binding constant for sugar chain No. 104 (sugar chain having no fucose): <1000 M⁻¹
Binding constant for sugar chain No. 105 (sugar chain having no fucose): <1000 M⁻¹
Binding constant for sugar chain No. 107 (sugar chain having no fucose): <1000 M⁻¹
Binding constant for sugar chain No. 108 (sugar chain having no fucose): <1000 M⁻¹
Binding constant for sugar chain No. 301 (sugar chain having no fucose): <1000 M⁻¹
Binding constant for sugar chain No. 304 (sugar chain having no fucose): <1000 M⁻¹
Binding constant for sugar chain No. 305 (sugar chain having no fucose): <1000 M⁻¹
Binding constant for sugar chain No. 307 (sugar chain having no fucose): <1000 M⁻¹
Binding constant for sugar chain No. 308 (sugar chain having no fucose): <1000 M⁻¹
Binding constant for sugar chain No. 313 (sugar chain having no fucose): <1000 M⁻¹
Binding constant for sugar chain No. 314 (sugar chain having no fucose): <1000 M⁻¹
Binding constant for sugar chain No. 323 (sugar chain having no fucose): <1000 M⁻¹
Binding constant for sugar chain No. 501 (sugar chain having no fucose): <1000 M⁻¹
Binding constant for sugar chain No. 502 (sugar chain having no fucose): <1000 M⁻¹
Binding constant for sugar chain No. 503 (sugar chain having no fucose): <1000 M⁻¹
Binding constant for sugar chain No. 504 (sugar chain having no fucose): <1000 M⁻¹
Binding constant for sugar chain No. 701 (sugar chain having no fucose): <1000 M⁻¹
Binding constant for sugar chain No. 702 (sugar chain having no fucose): <1000 M⁻¹
Binding constant for sugar chain No. 703 (sugar chain having no fucose): <1000 M⁻¹
Binding constant for sugar chain No. 704 (sugar chain having no fucose): <1000 M⁻¹
Binding constant for sugar chain No. 705 (sugar chain having no fucose): <1000 M⁻¹
Binding constant for sugar chain No. 706 (sugar chain having no fucose): <1000 M⁻¹
Binding constant for sugar chain No. 707 (sugar chain having no fucose): <1000 M⁻¹
Binding constant for sugar chain No. 708 (sugar chain having no fucose): <1000 M⁻¹
Binding constant for sugar chain No. 709 (sugar chain having no fucose): <1000 M⁻¹
Binding constant for sugar chain No. 710 (sugar chain having no fucose): <1000 M⁻¹
Binding constant for sugar chain No. 711 (sugar chain having no fucose): <1000 M⁻¹
Binding constant for sugar chain No. 712 (sugar chain having no fucose): <1000 M⁻¹
Binding constant for sugar chain No. 713 (sugar chain having no fucose): <1000 M⁻¹
Binding constant for sugar chain No. 715 (sugar chain having no fucose): <1000 M⁻¹
Binding constant for sugar chain No. 716 (sugar chain having no fucose): <1000 M⁻¹
Binding constant for sugar chain No. 717 (sugar chain having no fucose): <1000 M⁻¹
Binding constant for sugar chain No. 724 (sugar chain having no fucose): <1000 M⁻¹
Binding constant for sugar chain No. 725 (sugar chain having no fucose): <1000 M⁻¹
Binding constant for sugar chain No. 732 (sugar chain having no fucose): <1000 M⁻¹
Binding constant for sugar chain No. 733 (sugar chain having no fucose): <1000 M⁻¹
Binding constant for sugar chain No. 734 (sugar chain having no fucose): <1000 M⁻¹
Binding constant for sugar chain No. 735 (sugar chain having no fucose): <1000 M⁻¹
Binding constant for sugar chain No. 736 (sugar chain having no fucose): <1000 M⁻¹
Binding constant for sugar chain No. 737 (sugar chain having no fucose): <1000 M⁻¹
Binding constant for sugar chain No. 738 (sugar chain having no fucose): <1000 M⁻¹
Binding constant for sugar chain No. 901 (sugar chain having no fucose): <1000 M⁻¹
Binding constant for sugar chain No. 902 (sugar chain having no fucose): <1000 M⁻¹
Binding constant for sugar chain No. 903 (sugar chain having no fucose): <1000 M⁻¹
Binding constant for sugar chain No. 905 (sugar chain having no fucose): <1000 M⁻¹
Binding constant for sugar chain No. 906 (sugar chain having no fucose): <1000 M⁻¹
Binding constant for sugar chain No. 907 (sugar chain having no fucose): <1000 M⁻¹
Binding constant for sugar chain No. 015 (sugar chain having α1→6 fucose): 500000 M⁻¹
Binding constant for sugar chain No. 201 (sugar chain having α1→6 fucose): 460000 M⁻¹
Binding constant for sugar chain No. 202 (sugar chain having α1→6 fucose): 400000 M⁻¹
Binding constant for sugar chain No. 203 (sugar chain having α1→6 fucose): 330000 M⁻¹
Binding constant for sugar chain No. 401 (sugar chain having α1→6 fucose): 350000 M⁻¹
Binding constant for sugar chain No. 402 (sugar chain having α1→6 fucose): 200000 M⁻¹
Binding constant for sugar chain No. 403 (sugar chain having α1→6 fucose): 340000 M⁻¹
Binding constant for sugar chain No. 404 (sugar chain having α1→6 fucose): 390000 M⁻¹
Binding constant for sugar chain No. 405 (sugar chain having α1→6 fucose): 320000 M⁻¹
Binding constant for sugar chain No. 406 (sugar chain having α1→6 fucose): 220000 M⁻¹
Binding constant for sugar chain No. 407 (sugar chain having α1→6 fucose): 280000 M⁻¹
Binding constant for sugar chain No. 410 (sugar chain having α1→6 fucose): 220000 M⁻¹
Binding constant for sugar chain No. 413 (sugar chain having α1→6 fucose): 280000 M⁻¹
Binding constant for sugar chain No. 418 (sugar chain having α1→6 fucose): 220000 M⁻¹
Binding constant for sugar chain No. 601 (sugar chain having α1→6 fucose): 240000 M⁻¹
Binding constant for sugar chain No. 602 (sugar chain having α1→6 fucose): 120000 M⁻¹
